Measurements as given in article PMC4052943 (BioMed Research International, 2014).
Where two headings read alike, the source gives them in different places.

Tests used:
[1] = test system: Salmonella typhimurium TA100; details: TA 100, 500 μM alone (negative control)
Experimental: (§1) In the preincubation experiment, test compounds and mutagen, each having a volume of 0.1 mL of varying concentrations, were preincubated at 37°C for 30 min and then 0.1 mL of 1 × 10^7 CFU/mL density of the bacterial culture was added, followed by the addition of 2.5 mL of top agar at 45°C (containing 0.5% NaCl and 0.6% agar) supplemented with 0.5 mM histidine-biotin. […] The combined solutions were vortexed and poured onto minimal glucose plates (40% glucose solution and Vogel Bonner medium). The plates were incubated at 37°C for 48 h and the numbers of histidine-independent revertants colonies were scored.
(§2) Survival of the bacteria was routinely monitored for each experiment. Parallel controls were run with compounds alone at all concentrations to test the possible toxicity. The concentrations of the test samples for investigating the antimutagenicity were 50, 100, 200, and 500 μM. […] All the test samples and mutagens were dissolved in DMSO (final conc., 0.01%). […] Plates were set up in triplicate for each concentration and the entire experiment was repeated three times. Inhibition of mutagenicity was expressed as percentage decrease of reverse mutation and calculated as (1) Percent inhibition=[(a−b)/(a−c)]×100, where a = number of histidine revertants induced by mutagen, b = number of histidine revertants induced by mutagen in the presence of test compound, and c = number of revertants induced in negative control.

[2] = test system: Salmonella typhimurium TA102
Experimental: as §1, §2

[3] = test system: Salmonella typhimurium TA102; test: Ames antimutagenicity assay (preincubation); details: for inhibition at 50 µM / inhibition at 100 µM / inhibition at 250 µM / inhibition at 500 µM: Salmonella enterica, TYPHIMURIUM;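 for all read-outs here: compound and mutagen preincubated 30 min at 37 °C before adding bacteria, His+ revertant colonies counted after 48 h at 37 °C, inhibition relative to mutagen-alone minus negative-control revertants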
Experimental: as §1, §2

For O=C1O[C@H]2[C@@H]3OC(=O)c4cc(O)c(O)c(O)c4-c4c(O)c(O)c5oc(=O)c6c(c(O)c(O)c7oc(=O)c4c5c76)-c4c(cc(O)c(O)c4O)C(=O)OC[C@H]3OC(O)[C@@H]2OC(=O)c2cc(O)c(O)c(O)c2-c2c1cc(O)c(O)c2O (mixture of isomers) [Punicalagin], which “Number of His+ revertants colonies/plate” value ([1]; BP tables) is on record?
Its value is 191.0 ± 15.0 colonies/plate.

What about the “Number of His+ revertants colonies/plate” value ([1]; MMS tables) of the same compound?
Its value is 187.7 ± 9.8 colonies/plate.

What about the “Number of His+ revertants colonies/plate” value ([1]; NaN3 tables) of the same compound?
Its value is 187.7 ± 9.8 colonies/plate.

And the “Number of His+ revertants colonies/plate” value ([2]; Salmonella typhimurium)?
The value was 356.0 ± 10.4 colonies/plate.

What about the “Number of His+ revertants colonies/plate” value ([2]; TA 102, 50 μM alone (negative control), 2AF tables) of the same compound?
Its value is 320.0 ± 21.9 colonies/plate.

What about the “Number of His+ revertants colonies/plate” value ([2]; TA 102, 50 μM alone (negative control), BP tables) of the same compound?
The value was 320.0±21.9 colonies/plate.

And the “Number of His+ revertants colonies/plate” value ([2]; TA 102, 50 μM alone (negative control), MMS tables)?
Its value is 292.0 ± 7.7 colonies/plate.

What about the “Number of His+ revertants colonies/plate” value ([2]; TA 102, 50 μM alone (negative control), NaN3 tables) of the same compound?
The value was 306.7 ± 13.3 colonies/plate.

What about the “Number of His+ revertants colonies/plate” value ([2]; TA 102, 100 μM alone (negative control), 2AF tables) of the same compound?
Its value is 341.0 ± 18.3 colonies/plate.

What about the “Number of His+ revertants colonies/plate” value ([2]; TA 102, 100 μM alone (negative control), BP tables) of the same compound?
The value was 341.0 ± 18.3 colonies/plate.

And the “Number of His+ revertants colonies/plate” value ([2]; TA 102, 100 μM alone (negative control), MMS tables)?
Its value is 278.0 ± 12.8 colonies/plate.

And the “Number of His+ revertants colonies/plate” value ([2]; TA 102, 100 μM alone (negative control), NaN3 tables)?
Its value is 275.3 ± 22.1 colonies/plate.

What about the “Number of His+ revertants colonies/plate” value ([2]; TA 102, 250 μM alone (negative control), BP tables) of the same compound?
Its value is 356.0 ± 10.4 colonies/plate.

And the “Number of His+ revertants colonies/plate” value ([2]; TA 102, 250 μM alone (negative control), MMS tables)?
Its value is 255.0 ± 13.2 colonies/plate.

What about the “Number of His+ revertants colonies/plate” value ([2]; TA 102, 250 μM alone (negative control), NaN3 tables) of the same compound?
The value was 250.0 ± 22.9 colonies/plate.

What about the “Number of His+ revertants colonies/plate” value ([2]; TA 102, 500 μM alone (negative control), 2AF tables) of the same compound?
Its value is 358.0 ± 19.9 colonies/plate.

And the “Number of His+ revertants colonies/plate” value ([2]; TA 102, 500 μM alone (negative control), BP tables)?
Its value is 358.0 ± 19.9 colonies/plate.

And the “Number of His+ revertants colonies/plate” value ([2]; TA 102, 500 μM alone (negative control), MMS tables)?
Its value is 254.0 ± 14.3 colonies/plate.

And the “Number of His+ revertants colonies/plate” value ([2]; TA 102, 500 μM alone (negative control), NaN3 tables)?
Its value is 231.7 ± 24.8 colonies/plate.

What about the inhibition at 50 µM ([3]; read-out: % inhibition of mutagenicity, TA 102, 50 μM + 2AF, S9) of the same compound?
Its inhibition at 50 µM is 38.7%.

And the inhibition at 50 µM ([3]; read-out: % inhibition of mutagenicity, TA 102, 50 μM + BP, S9)?
Its inhibition at 50 µM is 15.8%.

And the inhibition at 50 µM ([3]; read-out: % inhibition of mutagenicity, TA 102, 50 μM + MMS, no S9)?
Its inhibition at 50 µM is 17.5%.

And the inhibition at 50 µM ([3]; read-out: % inhibition of mutagenicity, TA 102, 50 μM + NaN3, no S9)?
Its inhibition at 50 µM is 18%.

What about the inhibition at 100 µM ([3]; read-out: % inhibition of mutagenicity, TA 102, 100 μM + 2AF, S9) of the same compound?
Its inhibition at 100 µM is 54.8%.

What about the inhibition at 100 µM ([3]; read-out: % inhibition of mutagenicity, TA 102, 100 μM + BP, S9) of the same compound?
The inhibition at 100 µM was 28%.

And the inhibition at 100 µM ([3]; read-out: % inhibition of mutagenicity, TA 102, 100 μM + MMS, no S9)?
The inhibition at 100 µM was 30.8%.

And the inhibition at 100 µM ([3]; read-out: % inhibition of mutagenicity, TA 102, 100 μM + NaN3, no S9)?
The inhibition at 100 µM was 17.6%.

And the inhibition at 250 µM ([3]; read-out: % inhibition of mutagenicity, TA 102, 250 μM + BP, S9)?
The inhibition at 250 µM was 58.6%.

And the inhibition at 250 µM ([3]; read-out: % inhibition of mutagenicity, TA 102, 250 μM + MMS, no S9)?
The inhibition at 250 µM was 50.8%.

What about the inhibition at 250 µM ([3]; read-out: % inhibition of mutagenicity, TA 102, 250 μM + NaN3, no S9) of the same compound?
The inhibition at 250 µM was 42.2%.

What about the inhibition at 500 µM ([3]; read-out: % inhibition of mutagenicity, TA 102, 500 μM + 2AF, S9) of the same compound?
Its inhibition at 500 µM is 81.6%.

And the inhibition at 500 µM ([3]; read-out: % inhibition of mutagenicity, TA 102, 500 μM + BP, S9)?
The inhibition at 500 µM was 76.2%.

What about the inhibition at 500 µM ([3]; read-out: % inhibition of mutagenicity, TA 102, 500 μM + MMS, no S9) of the same compound?
Its inhibition at 500 µM is 74.1%.

And the inhibition at 500 µM ([3]; read-out: % inhibition of mutagenicity, TA 102, 500 μM + NaN3, no S9)?
Its inhibition at 500 µM is 59.8%.

What about the “Number of His+ revertants colonies/plate” value ([3]; TA 102, 50 μM + 2AF, S9) of the same compound?
Its value is 1028.0 ± 21.8 colonies/plate.

What about the “Number of His+ revertants colonies/plate” value ([3]; TA 102, 50 μM + BP, S9) of the same compound?
Its value is 635.0 ± 23.0 colonies/plate.

And the “Number of His+ revertants colonies/plate” value ([3]; TA 102, 50 μM + MMS, no S9)?
The value was 1072.0 ± 10.7 colonies/plate.

And the “Number of His+ revertants colonies/plate” value ([3]; TA 102, 50 μM + NaN3, no S9)?
The value was 346.3 ± 23.5 colonies/plate.

And the “Number of His+ revertants colonies/plate” value ([3]; TA 102, 100 μM + 2AF, S9)?
The value was 854.0 ± 31.6 colonies/plate.

What about the “Number of His+ revertants colonies/plate” value ([3]; TA 102, 100 μM + BP, S9) of the same compound?
The value was 595.0 ± 28.8 colonies/plate.

And the “Number of His+ revertants colonies/plate” value ([3]; TA 102, 100 μM + MMS, no S9)?
The value was 942.0 ± 16.2 colonies/plate.

And the “Number of His+ revertants colonies/plate” value ([3]; TA 102, 100 μM + NaN3, no S9)?
The value was 341.0 ± 19.1 colonies/plate.

And the “Number of His+ revertants colonies/plate” value ([3]; TA 102, 250 μM + BP, S9)?
The value was 496.0 ± 17.4 colonies/plate.

And the “Number of His+ revertants colonies/plate” value ([3]; TA 102, 250 μM + MMS, no S9)?
Its value is 738.0 ± 14.8 colonies/plate.

And the “Number of His+ revertants colonies/plate” value ([3]; TA 102, 250 μM + NaN3, no S9)?
The value was 310.7 ± 16.0 colonies/plate.

What about the “Number of His+ revertants colonies/plate” value ([3]; TA 102, 500 μM + 2AF, S9) of the same compound?
The value was 563.0 ± 29.4 colonies/plate.

What about the “Number of His+ revertants colonies/plate” value ([3]; TA 102, 500 μM + BP, S9) of the same compound?
Its value is 438.0 ± 19.5 colonies/plate.

What about the “Number of His+ revertants colonies/plate” value ([3]; TA 102, 500 μM + MMS, no S9) of the same compound?
Its value is 509.0 ± 19.7 colonies/plate.
